The results in this text go back to patent publication US9555049B2, “Arene ruthenium (II) derivatives containing iminophosphorane ligands and their use in cancer therapy” (Research Foundation of the City University of New York, priority 2014, dated 2017).

The subject of series [1] is leukemia Jurkat-T. As to the kind of experiment: MTT toxicity assay, Jurkat. The conditions noted are these: 24 h incubation, mean ± SD (n = 4). It counts as cell-based, human. As to the method:
(§1) Compounds were added at different concentrations in triplicate.

Series [2] concerns triple negative breast MDA-MB-231. Kind of series: MTT toxicity assay, MDA-MB-231. As to conditions: read-out: IC50 MDA-MB-231, 24 h incubation, mean ± SD (n = 4). As to the method:
Cytotoxic activity of the compounds was determined in some human cancer cell lines: leukemia Jurkat-T, lung A549, prostate DU-145, pancreas MiaPaca2, and triple negative breast MDA-MB-231, in comparison to cisplatin.
(§2) A549 (lung carcinoma), MiaPaca2 (pancreatic carcinoma), MDA-MB-231 (Triple negative breast carcinoma) and 293T (non-tumoral embryonic kidney cells) were cultured in DMEM medium supplemented with 10% FCS, L-glutamine and penicillin/streptomycin. Media for A549 cells were also supplemented with 2.2 g/l Na2CO3, 100 μg/ml pyruvate and 5 ml non-essential amino acids (Invitrogen). All these media will be referred as ‘complete medium’ hereinafter. Cell cultures were maintained in a humidified atmosphere of 95% air/5% CO2 at 37° C.
(§3) For toxicity assays cells (5×10^4 for Jurkat cells and 10^4 for adherent cell lines) were seeded in flat-bottom 96-well plates (100 μl/well) in complete medium. Adherent cells were allowed to attach for 24 h prior to addition of cisplatin or tested compounds. Compounds were added at different concentrations in triplicate. Cells were incubated with cisplatin or compounds for 24 h and then cell proliferation was determined by a modification of the MTT-reduction method. […] Finally, formazan crystal was dissolved by adding 100 μl/well ^iPrOH (0.05 M HCl) and gently shaking. The optical density was measured at 570 nm using a 96-well multiscanner autoreader (ELISA). In some experiments total cell number and cell viability were determined by the Trypan-blue exclusion test.

Series [3] is described as follows: Stability in solution by 31P and 1H NMR; air stability. It counts as physicochemical. On the procedure:
The stability of the water-soluble complexes was studied by ^31P {^1H} and ^1H NMR spectroscopy in D2O. […] However, as explained elsewhere in this specification, the biological activity of compound 2 is very fast (in 8 hours compound 2 induces 80% of apoptosis on Jurkat cells). Thus, without wishing to be bound to any particular theory, the observed biological activity is believed to mainly come from coordination compound 2 or its hydrolysis product.

For series [4], the system named is pancreas MiaPaca2. Kind of series: MTT toxicity assay, MiaPaca2. It counts as cell-based, human. The conditions noted are these: 24 h incubation, mean ± SD (n = 4). As to the method: as §1
Background: Tetrazolium assays rely on reduction of a dye to a coloured formazan, in cell work by metabolically active cells.

Series [5] relates to non-tumorigenic human embryonic kidney cells HEK293T. As to the kind of experiment: MTT toxicity assay, HEK-293T. It is filed as cell-based. The conditions noted are these: 24 h incubation, mean ± SD (n = 4). As to the method: In order to assess the compounds' selectivity for cancerous cells with respect to normal cell lines, the compounds were also screened for their antiproliferative effects on the non-tumorigenic human embryonic kidney cells HEK293T.
as §2, §3

Series [6] deals with Human serum albumin (HSA) (Homo sapiens, UniProt P02768). Kind of series: Interaction with HSA by fluorescence spectroscopy (Stern-Volmer). It is filed as binding. As to conditions: HSA 10 μM, phosphate buffer pH 7.4.
Experimental: The fluorescence data was analyzed by the Stern-Volmer equation.
A solution of each compound (8 mM) in DMSO was prepared and ten aliquots of 2.5 μL were added successively to a solution of HSA (10 μM) in phosphate buffer (pH=7.4) to achieve final metal complex concentrations in the range 10-100 μM. The excitation wavelength was set to 295 nm, and the emission spectra of HSA samples were recorded at room temperature in the range of 300 to 450 nm. The fluorescence intensities of all the metal compounds, the buffer and the DMSO are negligible under these conditions. The fluorescence was measured 240 s. after each addition of compound solution. The data were analyzed using the classical Stern-Volmer equation F0/F=1+KSV[Q].
Series [7] deals with prostate DU-145. As to the kind of experiment: MTT toxicity assay, DU-145. It counts as cell-based, human. The conditions noted are these: 24 h incubation, mean ± SD (n = 4). As to the method: as §1
Series [8] deals with lung A549. Kind of series: MTT toxicity assay, A549. It counts as cell-based, human. As to conditions: 24 h incubation, mean ± SD (n = 4). As to the method: as §1
Series [9] is described as follows: Solubility. As to conditions: 1:99 DMSO:H2O.
Series [10] deals with CT DNA. As to the kind of experiment: DNA precipitation and quantification of ruthenium by ICP-MS. More on the design: unit not given here. It counts as binding, calf. On the procedure:
In this experiment, 500 μM concentration DNA solutions were treated with 2 equiv of ruthenium compound 2 and compound 3 for twenty hours at 37° C. to promote DNA precipitation. The samples were then centrifuged, and the resulting pellets were analyzed for DNA and metal concentration.
Stock solutions of compounds 2 and 3 (4 mM in water) and CT DNA (11.56 mM in 5 mM Tris/HCl, 50 mM NaClO4, pH=7.39) were freshly prepared prior to use. 216 μl of DNA stock solution were diluted in 3.53 mL of buffer and 1.25 mL of compound stock solution were then added to achieve 5 mL final volume at concentrations of 500 μM in DNA and 1 mM in metal compound. Each sample was incubated at 37° C. for a period of 20 h, then cooled down to room temperature and centrifuged at 3000 rpm for 15 min. and at 4000 rpm for extra 40 min. The supernatant was separated and analyzed for CT DNA concentration by CD spectroscopy. The resulting pellet was washed twice with ice-cold ethanol (1 mL), centrifuged at RT for 1 min. at 4000 rpm, dried under high vacuum and analyzed for Ru content by ICP-MS. The total amount of DNA in each sample was 0.92 mg. Every experiment was run in duplicate.

For series [11], the system named is plasmid pBR322 DNA. Kind of series: Plasmid (pBR322) DNA electrophoresis (mobility shift assay). It counts as binding. The conditions noted are these: 37° C., twenty hours, Tris/HCl buffer, up to drug/DNA ratio 2.0. As to the method:
For these experiments, cisplatin, all uncoordinated ligands, and the starting dimeric organometallic ruthenium (II) complex [Ru(η^6-p-cymene)Cl]2 were also measured as controls. Plasmid pBR322 presents two main forms, OC (open circular or relaxed) and CCC (covalently closed or supercoiled), which display different electrophoretic mobility. Changes in the electrophoretic mobility of any of the forms upon incubation of the plasmid with a compound are usually interpreted as evidence of interaction. Generally, a drug that induces unwinding of the CCC form will produce a retardation of the electrophoretic mobility, while coiling of the OC form will result in increased mobility.
10 μL aliquots of pBR322 plasmid DNA (20 μg/mL) in buffer (5 mM Tris/HCl, 50 mM NaClO4, pH=7.39) were incubated with different concentrations of the compounds (1-4, 8, 9, [(η^6-p-cymene)Ru(μ-Cl)Cl]2) (in the range 0.25 and 4.0 metal complex:DNAbp) at 37° C. for 20 h in the dark. Samples of free DNA and cisplatin-DNA were prepared as controls. After the incubation period, the samples were loaded onto the 1% agarose gel. The samples were separated by electrophoresis for 1.5 h at 80 V in Tris-acetate/EDTA buffer (TAE). Afterwards, the gel was stained for 30 min. with a solution of GelRed Nucleic Acid stain.

The subject of series [12] is Jurkat cells. As to the kind of experiment: Cell death analysis (PS exposure, mitochondrial membrane potential, Hoechst) in Jurkat cells.
Experimental: The mechanism of cell death induced by compound 2 and compound 3 was explored in Jurkat cells. Nuclei morphology after twenty-four hour incubation with 1 μM solution of compound 2 or compound 3 was analyzed by Hoechst staining. […] Other apoptotic parameters such as phosphatidylserine exposure and mitochondrial membrane potential dissipation were analyzed using fluorescent probes.
To determine whether caspase inhibition prevented or just delayed cell death, experiments were performed in which cells were treated with compound 2 or compound 3 for twenty-four hours in the presence of z-VAD-fmk and then washed and further cultured in fresh medium for twenty-four hours (FIG. 6). PS exposure was analyzed after the first twenty-four hours in the presence of compound+z-VAD-fmk and twenty-four hours after washing.
Apoptosis/necrosis hallmarks of cells treated with compounds 2 and 3 were analyzed by measuring mitochondrial membrane potential and/or exposure of phosphatidylserine. In some experiments the general caspase inhibitor z-VAD-fmk was added at 50 μM 1 h before compounds. For mitochondrial membrane potential determination cells (2.5×10^5 in 200 μl) after treatment with compounds were incubated at 37° C. for 15 min. in ABB (140 mM NaCl, 2.5 mM CaCl2, 10 mM Hepes/NaOH, pH 7.4) containing 60 mM tetramethylrhodamine ethyl ester (TMRE, Molecular Probes). Phosphatidylserine exposure was quantified by labeling cells with AnnexinV-PE or AnnexinV-DY636 (Invitrogen) after treatment with compounds. AnnexinV was added at a concentration of 0.5 μg/mL and cells were incubated at room temperature for 15 min. In all cases, cells were diluted to 1 ml with ABB to be analyzed by flow cytometry (FACScan, BD Bioscience, Spain).
Series [13] concerns human cell lines. Kind of series: MTT toxicity assay, all tested human cell lines. It is filed as cell-based. As to conditions: 24 h incubation. As to the method: as §1
In series [14] the test system is human renal proximal tubular cells (RPTC). As to the kind of experiment: XTT assay for RPTC cells. The conditions noted are these: XTT assay 24 hours. It is filed as cell-based. As to the method:
Renal proximal tubular cells in primary culture have been described as an in vitro model to study nephrotoxicity.
The human Renal Proximal Tubule Cells (RPTC) a non-tumoral human kidney epithelial cell line (obtained from Lifeline Cell Technology, Frederick, Md., USA) were cultured in Lifeline's RenaLife Medium containing RenaLife LifeFactors with 2.4 mM L-Glutamine, 5 Î¼ g/mL rh insulin, 1.0 Î¼M epinephrine, 10 nM triiodothyronine, 0.1 Î¼ g/mL hydrocortisone hemisuccinate, 10 ng/mL rh EGF, 0.5% FBS and 5 Î¼ g/m transferrin PS (all from Lifeline Cell Technology), at 37° C. in a humidified atmosphere of 95% of air and 5% CO2 (University of Hawaii Cancer Center, Honolulu, Hi., USA). For evaluation of cell viability, cells were seeded at a concentration of 5×10^3 cells/well in 90 μl Lifeline's RenaLife complete medium into tissue culture grade 96-well flat bottom microplates (Thermo Scientific BioLite Microwell Plate, Fisher Scientific, Waltham, Mass., USA) and grown for 24 h. […] The optical density of each well (96-well plates) was quantified using EnVision Multilabel Plate Readers (Perkin Elmer, Waltham Mass., USA) at 450 nm wavelength to measure absorbance. The percentage of surviving cells was calculated from the ratio of absorbance of treated to untreated cells. […]

Where [15] appears, read: Jurkat cells, general caspase inhibitor z-VAD-fmk.

One may read the IC50 as the point on the concentration scale where inhibition reaches its midpoint.

Human serum albumin (HSA), sequence (P02768 25-609): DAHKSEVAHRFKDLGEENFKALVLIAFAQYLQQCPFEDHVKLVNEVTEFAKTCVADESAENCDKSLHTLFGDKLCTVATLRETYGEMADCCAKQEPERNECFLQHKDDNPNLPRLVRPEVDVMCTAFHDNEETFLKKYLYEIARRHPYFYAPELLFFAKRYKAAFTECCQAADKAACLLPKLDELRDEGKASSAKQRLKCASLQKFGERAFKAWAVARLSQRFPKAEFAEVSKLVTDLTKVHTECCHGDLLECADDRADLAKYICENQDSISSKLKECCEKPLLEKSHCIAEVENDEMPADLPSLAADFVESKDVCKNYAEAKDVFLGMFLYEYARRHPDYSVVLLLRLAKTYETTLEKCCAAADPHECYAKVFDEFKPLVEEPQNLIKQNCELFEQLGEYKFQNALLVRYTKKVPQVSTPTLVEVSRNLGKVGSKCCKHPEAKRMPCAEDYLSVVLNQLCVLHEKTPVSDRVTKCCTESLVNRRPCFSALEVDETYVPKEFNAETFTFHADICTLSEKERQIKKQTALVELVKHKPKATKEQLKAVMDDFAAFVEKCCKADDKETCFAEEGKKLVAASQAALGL

In the case of “[(η^6-p-cymene)Ru((Ph3P═N—CO-2-C6H4)-κ-C,N)Cl] [Compound 8]”, the 50% inhibitory concentration (IC50) in [1] is 2.39 ± 0.27 µM; in series [2], 7.1 ± 0.11 µM; in series [4], 8.2 ± 0.98 µM; in series [5], 4.1 ± 0.06 µM; in [7], 14.2 ± 4.2 µM; in series [8], 29.9 ± 5.8 µM. For the same compound, in [3], the “stability in d^6-DMSO solution” value was “stable for weeks”. Further, the Stern-Volmer constant in series [6] came out at 18100 M⁻¹. For the same compound, the “solubility in DMSO:H2O mixtures” value in series [9] was “soluble in mixtures 1:99 DMSO:H2O in micromolar concentrations”.
For the compound “[(η^6-p-cymene)Ru{(Ph3P═N-8-C9H6N)-κ-N,N}Cl]Cl [Compound 3]”, the half-maximal inhibitory concentration (IC50) in series [1] was determined as 0.9 ± 0.32 µM; in [2], 16.2 ± 0.9 µM; in series [4], 7 ± 0.4 µM; in series [5], 2.2 ± 1.1 µM; in series [7], 6.6 ± 0.85 µM; in series [8], 43.3 ± 8 µM. Besides, the “stability in D2O (NMR spectra)” value in series [3] is “does not change significantly over time”. Further, in series [3], the “stability in d^6-DMSO solution” value is on record as “stable for weeks”. The “ruthenium content in DNA precipitate” value in [10] came out at 2.43±0.18. The “electrophoretic mobility of plasmid pBR322 DNA” value (shortened to “electrophoretic mobility”) in series [11] was “no mobility retardation is observed”. Also, the “AnnexinV+ cells, compound + z-VAD-fmk” value in [12] (24 h with compound + z-VAD-fmk, then 24 h in fresh medium after washing) is recorded as 32%. Besides, in series [12] (setting [15]), the “PS exposure with z-VAD-fmk” value is on record as “completely abrogated”. For the same compound, the “Δψm loss with z-VAD-fmk” value in [12] (setting [15]) is 20%. The compound also registered a Δψm loss in series [12] (Jurkat cells, without z-VAD-fmk) of 40%. Besides, the “Nuclei morphology (Hoechst staining)” value in series [12] (Jurkat, 24 h incubation with 1 μM solution) is “chromatin condensation and fragmentation”. Also, the “AnnexinV+ cells, compound alone for twenty-four hours” value in series [12] (compound alone, 24 h) is 28%.
With “[(η^6-p-cymene)Ru([{Cp—P(Ph2)═N—CH2-2-NC5H4}Fe(Cp)]-κ-N,N)Cl]Cl [Compound 4]”, the 50% inhibitory concentration (IC50) in series [1] was 9.3 ± 0.07 µM; in [2], > 125 µM; in series [4] it was > 125 µM; in series [5], 114 ± 14.8 µM; in series [7], 148 ± 33 µM; in series [8], > 125 µM. In addition, the “stability in D2O (NMR spectra)” value in series [3] is reported as “does not change for over three days”. Moreover, the “stability in d^6-DMSO solution” value in [3] was “stable for weeks”. For the same compound, the “electrophoretic mobility” value in series [11] is “no mobility retardation is observed”.
For the compound `Cc1ccc(C(C)C)cc1.O=C(N=P12CN3CN(CN(C3)C1)C2)c1cccc[c]1[Ru][Cl]` [Compound 9, [(η^6-p-cymene)Ru{(PTA═N—CO-2-C6H4)-κ-C,N}Cl]], the IC50 in series [1] is 17.7 ± 7.5 µM; in [2] it was 75.4 ± 9.8 µM; in series [4], 54.5 ± 16 µM; in series [5], 142 ± 13.1 µM; in [7], 126 ± 28 µM; in series [8], > 125 µM. Besides, the “solubility in DMSO:H2O mixtures” value in series [9] is “soluble in mixtures 1:99 DMSO:H2O in micromolar concentrations”.
Take [(η^6-p-cymene)Ru(μ-Cl)Cl]2: in series [13], the 50% inhibitory concentration (IC50) was > 125 µM.
Regarding “[(η^6-p-cymene)Ru{(Ph3P═N—CO-2-N—C5H4)-κ-N,O}Cl](PF6) [Compound 1]”, the concentration for half-maximal inhibition (IC50) in [1] came to 1.1 ± 0.14 µM; in series [2], 4.91 ± 2.7 µM; in [4], 2.4 ± 0.18 µM; in series [5], 2.8 ± 0.2 µM; in [7], 1.89 ± 0.64 µM; in series [8], 9.9 ± 1.9 µM. Further, in [3], the “stability in d^6-DMSO solution” value was “stable for weeks”. Also, in [11], the “electrophoretic mobility” value is “induce retardation of the mobility of the CCC form”.
As to `N.N.[Cl][Pt][Cl]` [Cisplatin, reference compound], the IC50 in series [1] was found to be 10.8 ± 1.2 µM; in series [2], 131 ± 18 µM; in series [14], 46.4 ± 2.46 µM; in series [4] it was 76.5 ± 7.4 µM; in [5], 69 ± 6.7 µM; in series [7], 112 ± 33 µM. Moreover, the half-maximal inhibitory concentration (IC50) in [8] is 114 ± 9.1 µM. Further, the “electrophoretic mobility” value in [11] was “able to both increase and decrease the mobility of the OC and the CCC forms”.
